Laboratory results published in US20140335210A1, “METHOD AND AGROCHEMICAL COMPOSITION FOR USING LARCH WOOD EXTRACTS IN AGRICULTURE” (FLAVITPURE, INC., priority 2013, published 2014).
Where two headings read alike, the source gives them in different places.

Columns and labels:
[1] = tested on: Barley (Hordeumvulgare L.) seeds; settings: cited from earlier work
Fusarium = settings: about 0.60 to 0.70 mg per 100 g dry weight accumulated in the testa of ant18 mutants
P. expansum [2] = tested on: P. expansum; parameters: reduction of lesion diameters: concentration or dose not given beside the values; settings: cited from earlier work; for reduction of lesion diameters: apples Golden Delicious, 16° C. in the dark; for patulin accumulation in apples: in vivo, lesions analyzed by HPLC after 14 days
P. expansum [3] = settings: in vitro, agarized apple juice medium; cited from earlier work
cut seed potatoes = settings: cited from earlier work
[4] = tested on: dihydrotlavonol 4-reductase (DFR); settings: grape cell cultures, addition of compound; cited from earlier work
[5] = tested on: vacuolar membrane (H+-ATPase and H+-pyrophosphatase), slow vacuolar (SV) channel; settings: cited from earlier work
[6] = tested on: polar transport of indol-3yl-acetic acid; settings: 4-6 h; stimulation of basipetal, inhibition of acropetal transport; cited from earlier work
cress seedlings = settings: biphasic, dose dependent; cited from earlier work
white potato tissue = settings: biphasic, dose dependent; cited from earlier work
[7] = tested on: cyp705a5 mutant phenotype; settings: 15 μM in the growth medium; cited from earlier work
[8] = low-grade seeds soaked in aqueous 10^-4 M

SMILES: O=C1c2c(O)cc(O)cc2OC(c2ccc(O)c(O)c2)C1O (stereo not drawn) [Dihydroquercetin (taxifolin)]
- activity of ascorbate peroxidase (AsP) ([1]; (+DHQ)-plants): increased more significantly
- ratio between TBARs content and AsP activity ([1]; leaves, optimal soil conditions and flooding): lower
- germination rate in comparison with the same seeds soaked in water [1, 8]: twofold
- mold on seeds [1, 8]: no mold
- root growth ([1]; seedlings from pretreated seeds vs non-pretreated): higher
- shoot growth ([1]; seedlings from similarly germinated seeds, with vs without pretreatment): did not differ
- TBARs content ([1]; soil flooding, roots and leaves, (+DHQ) vs (-DHQ) seedlings): lower
- resistance of seeds to Fusarium infection (Fusarium): extraordinary resistance
- reduction of lesion diameters (P. expansum [2]; after 6 days of incubation): 97%
- reduction of lesion diameters (P. expansum [2]; after 10 days of incubation): 71%
- reduction of lesion diameters (P. expansum [2]; after 14 days of incubation): 27%
- patulin accumulation in apples (P. expansum [2]): no reduction
- fungal growth (P. expansum [3]): no inhibition
- reduction of patulin accumulation (P. expansum [3]): 48%
- fungal mold growth on treated seed pieces (cut seed potatoes; incubated in a controlled environment): adequately retarded
- thickness of the suberized layer formed below the cut surface (cut seed potatoes; treated seed potato tissue): increases
- increase in dihydrotlavonol 4-reductase (DFR) activity [4]: 10 fold
- active and passive transport systems of the vacuolar membrane [5]: affected
- effect on the membranes of isolated vacuoles ([5]; isolated vacuoles): strong stabilizing effect
- polarity of the transport of indol-3yl-acetic acid [6]: increased
- root growth of cress seedlings (cress seedlings): increased
- oxygen consumption of white potato tissue (white potato tissue): stimulated
- phenotype restored, of the wild type gravity response [7]: ≥ 100%

SMILES: COc1cc(/C=C/C(=O)O)ccc1O [ferulic acid]
- polarity of the transport of indol-3yl-acetic acid [6]: increased

SMILES: O=c1c(O)c(-c2ccc(O)cc2O)oc2cc(O)cc(O)c12 [morin]
- polarity of the transport of indol-3yl-acetic acid [6]: increased

SMILES: C[C@@H]1O[C@@H](O[C@H]2[C@H](Oc3cc(O)c4c(c3)O[C@H](c3ccc(O)cc3)CC4=O)O[C@H](CO)[C@@H](O)[C@@H]2O)[C@H](O)[C@H](O)[C@H]1O [naringin]
- polarity of the transport of indol-3yl-acetic acid [6]: increased

SMILES: O=C1/C(=C/c2ccc(O)c(O)c2)Oc2cc(O)ccc21 [sulfuretin]
- polarity of the transport of indol-3yl-acetic acid [6]: increased

SMILES: O=c1ccc2ccc(O)cc2o1 [umbelliferone, reference compound]
- reduction of lesion diameters (P. expansum [2]; after 6 days of incubation): 100%
- reduction of lesion diameters (P. expansum [2]; after 10 days of incubation): 68%
- reduction of lesion diameters (P. expansum [2]; after 14 days of incubation): 38%
- patulin accumulation in apples (P. expansum [2]): no reduction
- fungal growth (P. expansum [3]): no inhibition
- reduction of patulin accumulation (P. expansum [3]): 53%
